This is an account of results in patent publication US20240051985A1, “METTL3 MODULATORS” (ACCENT THERAPEUTICS, INC., priority 2020, published 2024).

In experiment [1] the target is T1, FLT3-ITD (Homo sapiens, UniProt P36888).
T1 sequence (P36888 1-993): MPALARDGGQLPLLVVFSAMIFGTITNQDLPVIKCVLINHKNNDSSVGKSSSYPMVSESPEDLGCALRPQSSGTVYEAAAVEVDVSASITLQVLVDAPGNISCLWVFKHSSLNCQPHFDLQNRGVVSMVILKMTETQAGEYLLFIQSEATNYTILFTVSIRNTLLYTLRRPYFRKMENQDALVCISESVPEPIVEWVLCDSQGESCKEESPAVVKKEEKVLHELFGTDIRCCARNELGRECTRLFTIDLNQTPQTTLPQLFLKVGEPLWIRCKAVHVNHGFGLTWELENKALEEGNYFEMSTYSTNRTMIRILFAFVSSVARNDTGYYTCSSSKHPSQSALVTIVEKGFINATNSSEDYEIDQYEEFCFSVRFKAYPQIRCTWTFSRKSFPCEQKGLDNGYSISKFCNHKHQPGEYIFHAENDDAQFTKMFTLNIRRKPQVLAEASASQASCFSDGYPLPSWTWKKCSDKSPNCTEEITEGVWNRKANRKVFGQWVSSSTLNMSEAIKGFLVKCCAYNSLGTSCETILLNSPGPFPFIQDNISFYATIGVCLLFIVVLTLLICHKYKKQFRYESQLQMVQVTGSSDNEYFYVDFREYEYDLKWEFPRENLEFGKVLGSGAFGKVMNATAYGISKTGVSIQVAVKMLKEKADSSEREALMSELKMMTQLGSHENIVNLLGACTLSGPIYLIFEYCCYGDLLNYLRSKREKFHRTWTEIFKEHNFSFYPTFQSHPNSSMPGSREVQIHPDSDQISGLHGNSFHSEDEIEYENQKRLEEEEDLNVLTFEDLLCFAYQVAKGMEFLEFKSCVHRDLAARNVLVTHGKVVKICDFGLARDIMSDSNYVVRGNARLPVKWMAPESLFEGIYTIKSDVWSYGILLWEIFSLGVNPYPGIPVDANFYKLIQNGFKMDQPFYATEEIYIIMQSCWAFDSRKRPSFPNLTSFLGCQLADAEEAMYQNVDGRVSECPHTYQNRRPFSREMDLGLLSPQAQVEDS
The experiment in a line: FLT3-ITD LanthaScreen assay. The class given is biochemical. Particulars: Table 4. The method, then: (§1) FLT3/FLT3-ITD LanthaScreen Assays
(§2) Assays were performed in a 10 μl-volume in 384-well polypropylene microplates (Perkin Elmer Proxiplate, cat. No. 6059480) at ambient temperature. Optimized 1× assay buffer was 50 mM Hepes pH 7.5, 2 mM DTT, 0.01% Tween, 0.01% BSA, 10 mM MgCl2. For compound screening FLT3 (final concentration, f.c.=[…]) or FLT3-ITD (f.c.=[…]) was added using a Multidrop Combi (ThermoFisher Scientific, Waltham, MA) and preincubated for 10 min. Reactions were started by adding fluorescein-poly GT (f.c.=200 nM) and ATP (f.c.=57 μM) substrates. Reactions proceeded for 40 minutes. The reactions were stopped with a detection mixture of EDTA (f.c.=20 mM) and terbium-conjugated anti-phoso tyrosine antibody pY20 (f.c.=2 nM). The plates were sealed and read on an Envision (PerkinElmer, Waltham, MA) using 340 nm excitation and emission reads at 495 and 520 nM.

For a further experiment, the target named is METTL3/METTL14 (Homo sapiens, UniProt Q86U44). The experiment can be described thus: METTL3-14 standard enzyme assay (3H-SAM flashplate). Particulars: Table 4; METTL3 biochemical assay. The procedure, abridged: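 Radiometric methyltransferase read-out: after quenching with excess unlabelled SAM (15 μM), biotinylated RNA was captured on streptavidin flashplates (2 h, 25° C) and counted. Reactions contained 2.5 nM enzyme (5 min preincubation), 100 nM RNA and 100 nM 3H-SAM, ran 30 min in HEPES pH 7.5 buffer with KCl, MgCl2, DTT.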
Sequence of METTL3/METTL14 (Q86U44 whole entry, species assumed): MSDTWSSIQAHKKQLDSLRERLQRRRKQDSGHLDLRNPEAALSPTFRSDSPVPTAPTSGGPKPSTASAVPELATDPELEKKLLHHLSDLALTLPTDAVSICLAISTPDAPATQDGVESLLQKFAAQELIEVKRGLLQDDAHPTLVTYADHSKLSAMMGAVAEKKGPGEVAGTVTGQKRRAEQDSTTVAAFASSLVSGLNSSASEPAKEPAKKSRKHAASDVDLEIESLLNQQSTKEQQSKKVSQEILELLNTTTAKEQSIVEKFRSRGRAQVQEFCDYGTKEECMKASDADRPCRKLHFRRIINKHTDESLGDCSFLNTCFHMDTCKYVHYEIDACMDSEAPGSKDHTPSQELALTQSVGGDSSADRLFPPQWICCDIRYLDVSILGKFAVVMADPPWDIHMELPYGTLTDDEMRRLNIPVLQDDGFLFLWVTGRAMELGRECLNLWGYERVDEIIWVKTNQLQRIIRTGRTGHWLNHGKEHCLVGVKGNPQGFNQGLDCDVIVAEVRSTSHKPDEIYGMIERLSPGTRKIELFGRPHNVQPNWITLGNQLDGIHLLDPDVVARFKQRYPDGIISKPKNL
Sequence of METTL3/METTL14 (Q9HCE5 whole entry partner, species assumed): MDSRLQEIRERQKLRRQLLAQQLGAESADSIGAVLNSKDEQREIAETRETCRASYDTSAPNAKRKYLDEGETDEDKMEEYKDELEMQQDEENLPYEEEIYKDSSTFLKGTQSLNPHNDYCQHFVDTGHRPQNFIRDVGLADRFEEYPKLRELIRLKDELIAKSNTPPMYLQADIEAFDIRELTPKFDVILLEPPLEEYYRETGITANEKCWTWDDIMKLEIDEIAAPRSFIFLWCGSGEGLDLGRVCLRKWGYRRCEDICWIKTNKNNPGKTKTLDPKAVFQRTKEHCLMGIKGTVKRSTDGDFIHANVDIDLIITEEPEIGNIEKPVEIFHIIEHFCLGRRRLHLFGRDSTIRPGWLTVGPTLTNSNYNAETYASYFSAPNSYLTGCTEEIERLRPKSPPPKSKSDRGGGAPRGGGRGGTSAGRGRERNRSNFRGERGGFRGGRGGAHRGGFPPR

The target of a further experiment is PRMT5-MEP50 (Homo sapiens, UniProt O14744). The experiment can be described thus: PRMT5 assay (3H-SAM flashplate). Particulars: Table 4; PRMT5 biochemical assay. Summed up: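 Radiometric methyl-transfer read-out: 3H-methyl transferred to a 3′-biotinylated, acetylated H4 peptide substrate (100 nM) from 3H-SAM (250 nM), captured on streptavidin scintillation plates. Enzyme complex 2.5 nM, pH 8.0 Tris buffer with DTT and Tween, compound preincubation 5 min, 60 min reaction stopped with excess unlabeled SAM.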
Sequence of PRMT5-MEP50 (O14744 whole entry): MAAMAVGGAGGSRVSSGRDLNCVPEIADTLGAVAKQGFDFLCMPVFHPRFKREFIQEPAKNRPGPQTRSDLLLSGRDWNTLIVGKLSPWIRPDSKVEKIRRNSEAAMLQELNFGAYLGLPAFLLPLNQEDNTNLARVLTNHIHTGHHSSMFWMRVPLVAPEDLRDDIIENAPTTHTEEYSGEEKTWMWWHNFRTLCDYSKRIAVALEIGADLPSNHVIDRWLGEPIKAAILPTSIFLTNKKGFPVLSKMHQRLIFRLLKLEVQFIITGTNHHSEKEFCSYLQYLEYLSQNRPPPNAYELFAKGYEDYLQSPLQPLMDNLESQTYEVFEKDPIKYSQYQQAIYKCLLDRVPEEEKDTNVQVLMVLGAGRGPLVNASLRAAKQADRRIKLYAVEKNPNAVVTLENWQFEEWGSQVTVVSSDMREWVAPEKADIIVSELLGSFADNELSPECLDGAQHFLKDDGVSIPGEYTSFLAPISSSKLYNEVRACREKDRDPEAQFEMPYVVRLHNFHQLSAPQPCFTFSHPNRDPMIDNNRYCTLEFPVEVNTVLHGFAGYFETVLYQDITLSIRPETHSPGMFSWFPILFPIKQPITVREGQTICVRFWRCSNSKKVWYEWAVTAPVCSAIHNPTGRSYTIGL
Sequence of PRMT5-MEP50 (Q9BQA1 whole entry partner): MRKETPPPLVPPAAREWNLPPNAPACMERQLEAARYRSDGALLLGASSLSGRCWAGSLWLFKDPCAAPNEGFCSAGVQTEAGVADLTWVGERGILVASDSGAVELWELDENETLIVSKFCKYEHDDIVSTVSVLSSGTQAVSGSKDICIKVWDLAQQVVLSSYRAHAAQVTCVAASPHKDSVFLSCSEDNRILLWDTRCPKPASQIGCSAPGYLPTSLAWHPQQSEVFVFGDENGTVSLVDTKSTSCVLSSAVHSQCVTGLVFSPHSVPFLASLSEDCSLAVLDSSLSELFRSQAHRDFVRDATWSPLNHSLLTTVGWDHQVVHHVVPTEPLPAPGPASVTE

In experiment [2] the target is T2, FLT3 (Homo sapiens, UniProt P36888).
T2 sequence (P36888 27-993): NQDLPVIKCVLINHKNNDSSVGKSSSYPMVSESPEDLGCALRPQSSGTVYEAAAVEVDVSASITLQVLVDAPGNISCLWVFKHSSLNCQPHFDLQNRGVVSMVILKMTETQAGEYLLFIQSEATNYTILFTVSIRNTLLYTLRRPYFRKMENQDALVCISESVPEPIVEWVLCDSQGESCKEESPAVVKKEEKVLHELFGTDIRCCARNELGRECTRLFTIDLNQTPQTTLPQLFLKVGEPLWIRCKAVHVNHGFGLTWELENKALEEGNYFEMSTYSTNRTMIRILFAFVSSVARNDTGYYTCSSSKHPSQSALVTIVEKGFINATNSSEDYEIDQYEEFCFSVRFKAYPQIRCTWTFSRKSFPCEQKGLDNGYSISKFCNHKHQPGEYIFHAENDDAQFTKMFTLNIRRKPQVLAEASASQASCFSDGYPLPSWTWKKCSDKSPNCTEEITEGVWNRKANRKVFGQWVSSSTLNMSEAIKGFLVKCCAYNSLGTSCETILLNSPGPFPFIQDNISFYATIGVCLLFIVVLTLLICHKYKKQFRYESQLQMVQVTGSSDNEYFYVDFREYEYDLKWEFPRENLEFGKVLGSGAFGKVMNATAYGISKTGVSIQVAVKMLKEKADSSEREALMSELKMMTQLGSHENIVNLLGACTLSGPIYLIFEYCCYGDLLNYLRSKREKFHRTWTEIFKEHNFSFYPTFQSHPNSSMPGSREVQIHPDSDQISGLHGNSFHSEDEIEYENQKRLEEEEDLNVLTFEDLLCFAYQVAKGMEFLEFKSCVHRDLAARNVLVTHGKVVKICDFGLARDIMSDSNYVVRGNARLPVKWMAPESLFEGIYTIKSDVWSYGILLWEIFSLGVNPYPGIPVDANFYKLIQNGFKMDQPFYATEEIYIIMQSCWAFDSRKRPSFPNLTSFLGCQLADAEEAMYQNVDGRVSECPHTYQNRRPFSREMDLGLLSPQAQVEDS
The experiment in a line: FLT3 LanthaScreen assay. The class given is biochemical. Particulars: Table 4. The method, then:
as §1, §2
Background: In TR-FRET formats the signal depends on donor and acceptor labels being close together.

The target in experiment [3] is T2, FLT3. The experiment can be described thus: FLT3 Caliper assay. The class given is biochemical. Particulars: Table 4; read-out: FLT3 Calipher assay IC50. The method, then:
(§3) FLT3/FLT3-ITD Caliper Assays
(§4) Assays were performed in a 20 μl-volume in 384-well polypropylene microplates (Perkin Elmer Proxiplate, cat. No. 6059480) at ambient temperature. Optimized 1× assay buffer was 50 mM Hepes pH 7.5, 2 mM DTT, 0.01% Tween, 0.01% BSA, 10 mM MgCl2. For compound screening FLT3 (final concentration, f.c.=0.9 nM) or FLT3-ITD (f.c.=7 nM) was added using a Multidrop Combi (ThermoFisher Scientific, Waltham, MA) and preincubated for 10 min. Reactions were started by adding fluorescein-peptide (sequence 5-FAM-EAIYAAPFAKKK-CONH2) (f.c.=300 μM) and ATP (FLT3 f.c.=97 μM FLT3-ITD f.c.=146 μM) substrates. Reactions proceeded for 60 minutes. The reactions were stopped with LabChip ProfilerPro Separation Buffer containing EDTA (f.c.=20 mM). The plates were read on a Caliper microfluidics reader (PerkinElmer, Waltham, MA).

Experiment [4] addresses T1, FLT3-ITD. The experiment in a line: FLT3-ITD Caliper assay. The format is biochemical. Particulars: Table 4; read-out: FLT3-ITD Calipher assay IC50. The method, then: as §3, §4

By IC50 is commonly meant the concentration needed to halve the response being measured. `Cn1ccc(-c2cn([C@@H]3O[C@H](C(=O)NC4CC5(CNC5)C4)[C@@H](O)[C@H]3O)c3ncnc(N)c23)n1` [Compound I-210]: the IC50 was at least 1000 nM against FLT3-ITD [1], 100 to 1000 nM against METTL3/METTL14, 10 to 100 nM at PRMT5-MEP50 and at least 1000 nM on FLT3 [2].
As for `C[C@H]1C[C@H](NC(=O)[C@H]2O[C@@H](n3cc(-c4ccn(C)n4)c4c(N)ncnc43)[C@H](O)[C@@H]2O)CCN1` [Compound I-190], the IC50 against FLT3-ITD [1], at METTL3/METTL14, against PRMT5-MEP50 and at FLT3 [2] was at least 1000 nM throughout.
Turning to `CNC(=O)Nc1cc(NC(=O)[C@H]2O[C@@H](n3cc(-c4ccn(C)n4)c4c(N)ncnc43)[C@H](O)[C@@H]2O)ccn1` [Compound I-143], the IC50 was at least 1000 nM at FLT3-ITD [1], 100 to 1000 nM against METTL3/METTL14, 10 to 100 nM against PRMT5-MEP50 and at least 1000 nM against FLT3 [2].
On to `CNc1ccc2ccc(NC(=O)[C@H]3O[C@@H](n4ccc5c(N)ncnc54)[C@@H](F)[C@@H]3O)cc2n1` [Compound I-62], for which the IC50 is at least 1000 nM against FLT3-ITD [1], 100 to 1000 nM at METTL3/METTL14, under 10 nM on PRMT5-MEP50 and at least 1000 nM against FLT3 [2].
In the case of `Cn1ccc(-c2cn([C@@H]3O[C@H](C(=O)N[C@H]4CC[C@@](C)(O)CC4)[C@@H](O)[C@H]3O)c3ncnc(N)c23)n1` [Compound I-209], the IC50 against FLT3-ITD [1] is at least 1000 nM; on METTL3/METTL14, 100 to 1000 nM; on PRMT5-MEP50, at least 1000 nM; at FLT3 [2], at least 1000 nM.
Regarding `CC(O)CN(C(=O)[C@H]1O[C@@H](n2cc(-c3ccn(C)n3)c3c(N)ncnc32)[C@H](O)[C@@H]1O)C1CCN(C)CC1` (stereo partly drawn) [Compound I-147], the IC50 is at least 1000 nM against FLT3-ITD [1], at least 1000 nM at METTL3/METTL14, under 10 nM against PRMT5-MEP50 and at least 1000 nM on FLT3 [2].
For the compound `Cn1ccc(-c2cn([C@@H]3O[C@H](C(=O)NCC4(O)CCNCC4)[C@@H](O)[C@H]3O)c3ncnc(N)c23)n1` [Compound I-198], the IC50 on FLT3 [3] was at least 1000 nM; at FLT3-ITD [4], at least 1000 nM; against METTL3/METTL14, 100 to 1000 nM; against PRMT5-MEP50, 10 to 100 nM.
Regarding `Cn1ccc(-c2cn([C@@H]3O[C@H](C(=O)NC4CCOCC4)[C@@H](O)[C@H]3O)c3ncnc(N)c23)n1` [Compound I-182], the IC50 on FLT3 [3] is at least 1000 nM; on FLT3-ITD [4], at least 1000 nM; against METTL3/METTL14, at least 1000 nM; at PRMT5-MEP50 it was 100 to 1000 nM.
In the case of `Nc1ncnc2c1ccn2[C@@H]1O[C@H](C(=O)Nc2ccc3ccc(N4CCC4)nc3c2)[C@@H](O)[C@@H]1F` [Compound I-34, (2S,3R,4S,5R)-5-{4-amino-7H-pyrrolo[2,3-d]pyrimidin-7-yl}-N-[2-(azetidin-1-yl)quinolin-7-yl]-4-fluoro-3-hydroxyoxolane-2-carboxamide], the IC50 is at least 1000 nM on FLT3 [3], at least 1000 nM at FLT3-ITD [4], 10 to 100 nM against METTL3/METTL14 and at least 1000 nM on PRMT5-MEP50.
Take `Cn1ccc(-c2cn([C@@H]3O[C@H](C(=O)Nc4cc(NC5CCC5)ncn4)[C@@H](O)[C@H]3O)c3ncnc(N)c23)n1` [Compound I-164]: the IC50 on FLT3 [3] is at least 1000 nM; at FLT3-ITD [4], at least 1000 nM; against METTL3/METTL14, at least 1000 nM; at PRMT5-MEP50, 100 to 1000 nM.
In the case of `Cn1ccc(-c2cn([C@@H]3O[C@H](C(=O)N[C@H]4CCC(=O)NC4)[C@@H](O)[C@H]3O)c3ncnc(N)c23)n1` [Compound I-179], the IC50 at FLT3 [3], on FLT3-ITD [4], at METTL3/METTL14 and on PRMT5-MEP50 was at least 1000 nM in each case.
In the case of `Cn1ccc(-c2cn([C@@H]3O[C@H](C(=O)N4CCNCC4)[C@@H](O)[C@H]3O)c3ncnc(N)c23)n1` [Compound I-176], the IC50 is at least 1000 nM at FLT3 [3], at least 1000 nM on FLT3-ITD [4], 100 to 1000 nM against METTL3/METTL14 and 100 to 1000 nM at PRMT5-MEP50.
Take `Cn1ccc(-c2cn([C@@H]3O[C@H](C(=O)NCCCN4CCCC4)[C@@H](O)[C@H]3O)c3ncnc(N)c23)n1` [Compound I-181]: the IC50 on FLT3 [3] was at least 1000 nM; at FLT3-ITD [4], at least 1000 nM; against METTL3/METTL14 it was at least 1000 nM; against PRMT5-MEP50, 10 to 100 nM.
On to `CN(C)CCCNC(=O)[C@H]1O[C@@H](n2cc(-c3ccn(C)n3)c3c(N)ncnc32)[C@H](O)[C@@H]1O` [Compound I-183], for which the IC50 on FLT3 [3] is at least 1000 nM; on FLT3-ITD [4], at least 1000 nM; on METTL3/METTL14, at least 1000 nM; against PRMT5-MEP50 it was 10 to 100 nM.
Consider `Cc1ccnc(NC(=O)[C@H]2O[C@@H](n3cc(-c4ccn(C)n4)c4c(N)ncnc43)[C@H](O)[C@@H]2O)c1` [Compound I-172], for which the IC50 at FLT3 [3], at FLT3-ITD [4], at METTL3/METTL14 and at PRMT5-MEP50 was at least 1000 nM throughout.
